Experimental data published in patent EP2257297B1, “COMPOUNDS FOR USE IN THE TREATMENT OF ACNE, SEBORRHOEA AND SEBHORROEIC DERMATITIS, OR FOR REDUCING SEBUM SECRETION” (priority 2008, dated 2009).

Target: T1, human MC5R (Homo sapiens, UniProt P33032)
T1 construct: purchased Perkin Elmer RBXMC5M400UA
Assay: Human MC5R radioligand binding assay ([125I] NDP-MSH displacement, hMC5R membranes)
Conditions: not given
Procedure: After incubation for 10 mins the phosphate buffer containing the iodine was added to NDP-MSH (10 ul at 1 mg/mL) in a separate eppendorf tube. This was incubated for a further 10 mins.
Resuspended membranes were kept on ice until they were added to the wells of the plate.
Assays were performed in 96 well polypropylene plates. […] This was incubated for 1 hr at 37 °C. Non-specific binding was determined with […] NDP-MSH. Plates were filtered using a Tomtec cell harvester with GF/A filters (Wallac) (presoaked in 0.6% polyethylenimine) and washed three times with 1.0 mL ice-cold wash buffer (the above incubation buffer without 1,10-phenanthroline and Complete™ protease inhibitor tablet). The filters were dried in a 37 °C oven, placed in a sample bag and 5 mL Betaplatescint (Wallac) was added. Prepared filters were counted in cassettes in a Microbeta Trilux (Wallac) for 1 min. […] Data analysis was performed using GraphPad Prism 4, employing competition binding with a single site model and a fixed Hill coefficient. The following equation was used: Y = Bottom + (Top-Bottom)/1/10^(X-logEC50), where X = log(concentration) and Y = binding to fit the data.

T1 sequence (P33032 whole entry): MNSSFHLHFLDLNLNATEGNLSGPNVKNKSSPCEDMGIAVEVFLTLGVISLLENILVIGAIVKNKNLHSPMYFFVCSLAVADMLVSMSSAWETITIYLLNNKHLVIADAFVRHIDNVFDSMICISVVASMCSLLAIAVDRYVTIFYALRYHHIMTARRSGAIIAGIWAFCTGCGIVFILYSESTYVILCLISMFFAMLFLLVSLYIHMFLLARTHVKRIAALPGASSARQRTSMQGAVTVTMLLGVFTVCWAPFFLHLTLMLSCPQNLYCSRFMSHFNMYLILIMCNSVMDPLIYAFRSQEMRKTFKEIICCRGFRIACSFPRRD

IC50, < 100 nM:
CCC(CN1CCC(CNC(=O)c2ccc3cc(Cl)ccc3c2)N[C@@H](C2CCN(C(C)C)CC2)C1=O)c1ccccc1 (mixture of isomers) [Compound 564, (S)-6-chloro-N-((3-(1-isopropylpiperidin-4-yl)-2-oxo-1-(2-phenylbutyl)-1,4-diazepan-5-yl)methyl)-2-naphthamide]

Same assay, conditions: hMC5R assay as in Example 102; compounds tested as trifluoroacetate or hydrochloride salts, or as free base

IC50, < 10000 nM:
COc1ccc(C(=O)NC[C@@H]2CCN(CC(c3ccccc3)c3ccccc3)C(=O)[C@H](CCCNC(=N)N)N2)c(OC)c1 [Compound 146, N-(((3S,5S)-1-(2,2-diphenylethyl)-3-(3-guanidinopropyl)-2-oxo-1,4-diazepan-5-yl)methyl)-2,4-dimethoxybenzamide]
N=C(N)NCCC[C@@H]1N[C@H](CNC(=O)c2ccc3[nH]nnc3c2)CCN(CC(c2ccccc2)c2ccccc2)C1=O [Compound 150, N-(((3S,5S)-1-(2,2-diphenylethyl)-3-(3-guanidinopropyl)-2-oxo-1,4-diazepan-5-yl)methyl)-1H-benzo[d][1,2,3]triazole-5-carboxamide]
N=C(N)NCCC[C@@H]1N[C@H](CNC(=O)C2CCCCC2)CCN(CC(c2ccccc2)c2ccccc2)C1=O [Compound 139, N-(((3S,5S)-1-(2,2-diphenylethyl)-3-(3-guanidinopropyl)-2-oxo-1,4-diazepan-5-yl)methyl)cyclohexanecarboxamide]
NCCC[C@@H]1N[C@H](CNC(=O)C2CCN(c3ccccc3)C2=O)CCN(CC(c2ccccc2)c2ccccc2)C1=O (stereo partly drawn) [Compound 239, N-(((3S,5S)-3-(3-aminopropyl)-1-(2,2-diphenylethyl)-2-oxo-1,4-diazepan-5-yl)methyl)-2-oxo-1-phenylpyrrolidine-3-carboxamide]
CN(C[C@@H]1CCN(CC(c2ccccc2)c2ccccc2)C(=O)[C@H](CCCN)N1)C(=O)/C=C/c1ccc(F)cc1 [Compound 257, (E)-N-(((3S,5S)-3-(3-aminopropyl)-1-(2,2-diphenylethyl)-2-oxo-1,4-diazepan-5-yl)methyl)-3-(4-fluorophenyl)-N-methylacrylamide]

IC50, < 1000 nM:
NC[C@@H]1N[C@H](CNC(=O)c2ccc(Cl)c(Cl)c2)CCN(Cc2cc(Cl)cc(Cl)c2)C1=O [Compound 364, N-(((3S,5S)-3-(aminomethyl)-1-(3,5-dichlorobenzyl)-2-oxo-1,4-diazepan-5-yl)methyl)-3,4-dichlorobenzamide]
NCCCC[C@@H]1N[C@H](CNC(=O)c2ccc3ccccc3c2)CCN(Cc2ccc3ccccc3c2)C1=O [Compound 122, N-(((3S,5S)-3-(4-aminobutyl)-1-(naphthalen-2-ylmethyl)-2-oxo-1,4-diazepan-5-yl)methyl)-2-naphthamide]
N=C(N)NCCC[C@@H]1N[C@H](CNC(=O)/C=C/c2cccc(C(F)(F)F)c2)CCN(CC(c2ccccc2)c2ccccc2)C1=O [Compound 192, (E)-N-(((3S,5S)-1-(2,2-diphenylethyl)-3-(3-guanidinopropyl)-2-oxo-1,4-diazepan-5-yl)methyl)-3-(3-(trifluoromethyl)phenyl)acrylamide]
O=C(NC[C@@H]1CCN(Cc2cc(Cl)cc(Cl)c2)C(=O)[C@H](CN2CCCC2)N1)c1ccc(Cl)c(Cl)c1 [Compound 371, 3,4-dichloro-N-(((3S,5S)-1-(3,5-dichlorobenzyl)-2-oxo-3-(pyrrolidin-1-ylmethyl)-1,4-diazepan-5-yl)methyl)benzamide]
N=C(N)NCCC[C@@H]1N[C@H](CNC(=O)[C@@H]2COc3ccccc3O2)CCN(CC(c2ccccc2)c2ccccc2)C1=O [Compound 165, (S)-N-(((3S,5S)-1-(2,2-diphenylethyl)-3-(3-guanidinopropyl)-2-oxo-1,4-diazepan-5-yl)methyl)-2,3-dihydrobenzo[b][1,4]dioxine-2-carboxamide]
N=C(N)NCCC[C@@H]1N[C@H](CNC(=O)Cc2ccc3ccccc3c2)CCN(CC(c2ccccc2)c2ccccc2)C1=O [Compound 110, N-(((3S,5S)-1-(2,2-diphenylethyl)-3-(3-guanidinopropyl)-2-oxo-1,4-diazepan-5-yl)methyl)-2-(naphthalen-2-yl)acetamide]
CCC(CC)CN1CC[C@@H](CNC(=O)/C=C/c2ccc(Cl)cc2)N[C@@H](CN2CCCCC2)C1=O [Compound 355, (E)-3-(4-chlorophenyl)-N-(((3S,5S)-1-(2-ethylbutyl)-2-oxo-3-(piperidin-1-ylmethyl)-1,4-diazepan-5-yl)methyl)acrylamide]
NCCCC[C@@H]1N[C@H](CNC(=O)c2ccc3ccccc3c2)CCN(CC(c2ccccc2)c2ccccc2)C1=O [Compound 126, N-(((3S,5S)-3-(4-aminobutyl)-1-(2,2-diphenylethyl)-2-oxo-1,4-diazepan-5-yl)methyl)-2-naphthamide]
COc1cc(C(=O)NC[C@@H]2CCN(CC(c3ccccc3)c3ccccc3)C(=O)[C@H](CCCNC(=N)N)N2)c(OC)c2ccccc12 [Compound 215, N-(((3S,5S)-1-(2,2-diphenylethyl)-3-(3-guanidinopropyl)-2-oxo-1,4-diazepan-5-yl)methyl)-1,4-dimethoxy-2-naphthamide]
N=C(N)NCCC[C@@H]1N[C@H](CNC(=O)/C=C/c2ccccc2C(F)(F)F)CCN(CC(c2ccccc2)c2ccccc2)C1=O [Compound 172, (E)-N-(((3S,5S)-1-(2,2-diphenylethyl)-3-(3-guanidinopropyl)-2-oxo-1,4-diazepan-5-yl)methyl)-3-(2-(trifluoromethyl)phenyl)acrylamide]
O=C(/C=C/c1ccc(Cl)cc1)NC[C@@H]1CCN(CC(c2ccccc2)c2ccccc2)C(=O)[C@H](CCC2CCCCC2)N1 [Compound 322, (E)-3-(4-chlorophenyl)-N-(((3S,5S)-3-(2-cyclohexylethyl)-1-(2,2-diphenylethyl)-2-oxo-1,4-diazepan-5-yl)methyl)acrylamide]
CCCC[C@@H]1N[C@H](CNC(=O)/C=C/c2ccc(Cl)cc2)CCN(CC(c2ccccc2)c2ccccc2)C1=O [Compound 297, (E)-N-(((3S,5S)-3-butyl-1-(2,2-diphenylethyl)-2-oxo-1,4-diazepan-5-yl)methyl)-3-(4-chlorophenyl)acrylamide]
O=C(NC[C@@H]1CCN(Cc2cc(Cl)cc(Cl)c2)C(=O)[C@H](CN2CCCC2)N1)c1ccc2ccccc2c1 [Compound 372, N-(((3S,5S)-1-(3,5-dichlorobenzyl)-2-oxo-3-(pyrrolidin-1-ylmethyl)-1,4-diazepan-5-yl)methyl)-2-naphthamide]
NCC[C@@H]1N[C@H](CNC(=O)c2ccc(Cl)c(Cl)c2)CCN(CC(c2ccccc2)c2ccccc2)C1=O [Compound 280, N-(((3S,5S)-3-(2-aminoethyl)-1-(2,2-diphenylethyl)-2-oxo-1,4-diazepan-5-yl)methyl)-3,4-dichlorobenzamide]
CCC(CC)CN1CC[C@@H](CNC(=O)c2ccc(Cl)c(Cl)c2)N[C@@H](CCN)C1=O [Compound 346, N-(((3S,5S)-3-(2-aminoethyl)-1-(2-ethylbutyl)-2-oxo-1,4-diazepan-5-yl)methyl)-3,4-dichlorobenzamide]

IC50, < 100 nM:
COc1ccc(/C=C/C(=O)NC[C@@H]2CCN(CC(c3ccccc3)c3ccccc3)C(=O)[C@H](CCCNC(=N)N)N2)cc1 [Compound 187, (E)-N-(((3S,5S)-1-(2,2-diphenylethyl)-3-(3-guanidinopropyl)-2-oxo-1,4-diazepan-5-yl)methyl)-3-(4-methoxyphenyl)acrylamide]
N=C(N)NCCC[C@@H]1N[C@H](CNC(=O)/C=C/c2ccc(F)cc2)CCN(CC(c2ccccc2)c2ccccc2)C1=O [Compound 199, (E)-N-(((3S,5S)-1-(2,2-diphenylethyl)-3-(3-guanidinopropyl)-2-oxo-1,4-diazepan-5-yl)methyl)-3-(4-fluorophenyl)acrylamide]
N=C(N)NCCC[C@@H]1N[C@H](CNC(=O)/C=C/c2ccccc2F)CCN(CC(c2ccccc2)c2ccccc2)C1=O [Compound 194, (E)-N-(((3S,5S)-1-(2,2-diphenylethyl)-3-(3-guanidinopropyl)-2-oxo-1,4-diazepan-5-yl)methyl)-3-(2-fluorophenyl)acrylamide]

IC50, < 10 nM:
O=C(/C=C/c1ccc(F)cc1)NC[C@@H]1CCN(CC(c2ccccc2)c2ccccc2)C(=O)[C@H](CCCNC2CCCCC2)N1 [Compound 231, (E)-N-(((3S,5S)-3-(3-(cyclohexylamino)propyl)-1-(2,2-diphenylethyl)-2-oxo-1,4-diazepan-5-yl)methyl)-3-(4-fluorophenyl)acrylamide]
O=C(/C=C/c1ccc(Cl)cc1)NC[C@@H]1CCN(Cc2cc(Cl)cc(Cl)c2)C(=O)[C@H](CCN2CCCCC2)N1 [Compound 345, (E)-3-(4-chlorophenyl)-N-(((3S,5S)-1-(3,5-dichlorobenzyl)-2-oxo-3-(2-(piperidin-1-yl)ethyl)-1,4-diazepan-5-yl)methyl)acrylamide]

Same assay, conditions: hMC5R binding assay as in Example 102; compounds tested as trifluoroacetate or hydrochloride salts, or as free base

IC50, < 100 nM:
CC[C@H](CN1CC[C@H](CNC(=O)c2ccc3cc(Cl)ccc3c2)N[C@@H](CCN2CCCCC2)C1=O)c1ccccc1 [Compound 581, 6-chloro-N-(((3S,5R)-2-oxo-1-((S)-2-phenylbutyl)-3-(2-(piperidin-1-yl)ethyl)-1,4-diazepan-5-yl)methyl)-2-naphthamide]
